System: castrated (GDX) male Wistar rats
Experiment: In vivo model of efficacy and selectivity (castrated rat; LA, SV wet weight, PALP activity)
Conditions: po, two weeks; for LA weight % Efficacy versus control (GDX) (ANOVA, p < 0.05): levator ani wet weight normalized to body weight; for PALP % Efficacy versus control (GDX) (ANOVA, p < 0.05): periosteal alkaline phosphatase activity, tibia; for SV weight % Efficacy verses control (sham) (ANOVA, p < 0.05): seminal vesicle wet weight normalized to body weight
Method: Male Wistar rats (12 weeks old) are castrated (gonadectomized or “GDX”) according to approved procedures (Charles River Labs) and allowed to waste for eight - 10 weeks. Age-matched sham-operated mice are also prepared. (Sham-operated mice are animals that have been exposed to the same surgical procedures as castrated animals except their testes are not removed.) Animals are housed in a temperature-controlled room (24° C.) with a reversed 12 hour light/dark cycle (dark 10:00/22:00) and water and food are available ad libitum.
Test compounds are administered to the animals using conventional vehicles. For example, 1% sodium carboxymethylcellulose (CMC)+0.25% Tween 80 in sterile H2O can be used for oral administration and 6% ethyl-alcohol (EtOH)+94% cyclodexitrane (CDX) can be used for subcutaneous injections. Sham operated rats treated with vehicle alone are used as a treatment positive controls whereas castrated rats treated only with vehicle are used as treatment negative control.
Test animals are dosed over a two week timeframe, orally or subcutaneously, with, for example, 0.3, 1, 3, 10 or 30 mg/kg/day of a compound of the present invention. After the two-week treatment, as an indicator of activity, the wet weight of the Levator Ani (LA) muscle in the test group is determined and compared to the wet weight of the Levator Ani from the castrated, vehicle-only control group. The wet weights of the muscle obtained in both the test group and the vehicle-only group are normalized relative to total body weight. As an indicator of tissue selective activity, the wet weight of the seminal vesicle (SV) from test animals is similarly compared to the wet weight of the seminal vesicles from the sham, vehicle-only group. Again, the wet weights of the vesicles obtained from both the test group and the vehicle-only group are normalized relative to total body weight.
In addition to the Levator Ani wet weight, the left tibia of rats are isolated during necropsy and after uncapping of the epiphysis, the soft tissue surrounding the bone is carefully removed. This sample is then placed in a solution containing 0.2% collagenase in Tris Buffer (pH 7.5). The resulting enzymatic excision of the outer periosteal layer is subjected immediately to an assay to determine alkaline phosphatase activity, an indicator of osteoblast/bone anabolic activity. Briefly, 30 μL of sample is placed in an epitube containing 200 μL of para-nitrophenyl phosphate (PNPP) substrate buffer (Pierce Cat # 37621). Purified alkaline phosphatase (Sigma Cat. # P4252) is used to make a standard curve, and the samples are read in a plate reader at Abs405 to determine periosteal alkaline phosphatase (PALP) activity. The results obtained from both the test group and the vehicle only group may be normalized relative to total body weight.
Percent Efficacy (% Eff.) values may be determined as follows: % Eff.=((Wet weight of LA or SV or PALP activity in test animal/test animal total body weight)/(Wet weight of LA or SV or PALP activity in control animal/control animal total body weight))×100.

With `CN(C)S(=O)(=O)N[C@@H]1Cc2c(n(Cc3cccc(F)n3)c3ccc(C#N)cc23)C1` [Example 74, (R)-N′-[7-Cyano-4-(6-fluoro-pyridin-2-ylmethyl)-1,2,3,4-tetrahydro-cyclopenta[b]indol-2-yl]-N,N-dimethylsulfamide] the “LA weight % Efficacy versus control (GDX) (ANOVA, p < 0.05)” value (3 mg/Kg/d) was 134%, the “PALP % Efficacy versus control (GDX) (ANOVA, p < 0.05)” value (3 mg/Kg/d) was 95% and the “SV weight % Efficacy verses control (sham) (ANOVA, p < 0.05)” value (3 mg/Kg/d) was 6%. For the same molecule, the “LA weight % Efficacy versus control (GDX) (ANOVA, p < 0.05)” value (10 mg/Kg/d) was 195%, the “PALP % Efficacy versus control (GDX) (ANOVA, p < 0.05)” value (10 mg/Kg/d) was 116% and the “SV weight % Efficacy verses control (sham) (ANOVA, p < 0.05)” value (10 mg/Kg/d) was 8%. For the same molecule, the “LA weight % Efficacy versus control (GDX) (ANOVA, p < 0.05)” value (30 mg/Kg/d) was 186%, the “PALP % Efficacy versus control (GDX) (ANOVA, p < 0.05)” value (30 mg/Kg/d) was 107% and the “SV weight % Efficacy verses control (sham) (ANOVA, p < 0.05)” value (30 mg/Kg/d) was 14%.
